The source of these data is ChEMBL document CHEMBL3351405, “Novel tricyclic pyrazolopyrimidines as potent and selective GPR119 agonists” (Bioorg Med Chem Lett, 2014).

Series [1] is described as follows: Solubility of the compound at pH 6.8. Type of series: physicochemical. The note with it: buffer.
In series [2] the test system is Rattus norvegicus. Nature of the series: Antidiabetic activity in ZDF fa/fa rat model assessed as reduction in glucose AUC at 3 mg/kg, po qd administered 1 hr prior to glucose bolus after 2 weeks by OGTT relative to vehicle-treated control. Type of series: functional, Zucker. More on the design: scale not given: the % may be the effect or the level left.
Series [3] has as its target T1, Glucose-dependent insulinotropic receptor (Homo sapiens, UniProt Q8TDV5).
T1 sequence (Q8TDV5 whole entry): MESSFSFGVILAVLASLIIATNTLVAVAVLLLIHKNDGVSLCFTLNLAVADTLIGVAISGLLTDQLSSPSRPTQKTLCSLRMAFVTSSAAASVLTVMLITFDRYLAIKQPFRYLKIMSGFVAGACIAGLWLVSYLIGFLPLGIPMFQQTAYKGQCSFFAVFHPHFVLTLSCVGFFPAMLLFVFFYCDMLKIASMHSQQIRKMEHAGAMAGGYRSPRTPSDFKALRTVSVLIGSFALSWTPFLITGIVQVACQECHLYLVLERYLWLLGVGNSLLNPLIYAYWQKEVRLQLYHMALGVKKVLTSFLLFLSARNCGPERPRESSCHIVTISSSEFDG
The experiment in a line: Agonist activity at human GPR119 overexpressed in CHO cells assessed as increase in cellular cAMP production by HTRF method. Type of series: functional, cell-based. In general terms: cAMP levels reflect the balance of adenylyl cyclase and phosphodiesterase activity.

The test system of series [4] is Mus musculus. The experiment in a line: Increase in plasma GLP1 level in 16 hrs fasted wild-type C57BL/6J mouse at 10 mg/kg, po administered as single dose 30 mins prior to glucose excursion measured after 2 mins by ELISA relative to vehicle-treated control. Type of series: functional. A general note: ELISA stands for enzyme-linked immunosorbent assay.
Series [5] deals with T2, Glucose-dependent insulinotropic receptor (Homo sapiens) (UniProt Q8TDV5).
T2 sequence (whole entry): T1 sequence (Q8TDV5 whole entry)
Nature of the series: Agonist activity at human GPR119 overexpressed in CHO cells assessed as increase in cellular cAMP production by HTRF method relative to AR231453. Type of series: functional, cell-based.

The nature of series [6]: Clearance in human liver microsomes assessed as extraction ratio. Type of series: ADME. Particulars: read-out: ERH. For orientation: Microsomes from liver hold many membrane-bound enzymes, among them those of drug oxidation.
Series [7] concerns Rattus norvegicus. The experiment in a line: Antidiabetic activity in ZDF fa/fa rat model assessed as reduction in glucose AUC at 10 mg/kg, po qd administered 1 hr prior to glucose bolus after 2 weeks by OGTT relative to vehicle-treated control. Type of series: functional, Zucker. More on the design: scale not given: the % may be the effect or the level left.
Series [8] relates to Rattus norvegicus. Nature of the series: Antidiabetic activity in ZDF fa/fa rat model assessed as reduction in glucose AUC at 30 mg/kg, po qd administered 1 hr prior to glucose bolus after 2 weeks by OGTT relative to vehicle-treated control. More on the design: scale not given: the % may be the effect or the level left. Type of series: functional, Zucker.
For series [9], the system named is Mus musculus. The experiment in a line: Dose normalized AUC in po dosed Balb/C mouse. Type of series: ADME, organism-based. Particulars: in vivo.

Molecules are shown by their SMILES. In brackets after ≈: the same amount, converted by molar mass.

Broadly, the solubility is the dissolved amount per volume that the medium holds. One may read the EC50 as the concentration giving half of the maximal effect. Turning to `COC(=O)[C@@]1(Cc2cccc(F)c2)NCc2cnc3c(-c4ccc(C(F)(F)F)cc4)c(CO)nn3c21`, the solubility in series [1] amounted to 58 µM (≈ 29 µg/mL). The Activity came out at 1% in [2], 29% in series [4], 11% in series [7] and 37% in series [8]. Further, the EC50 in series [3] came out at 5 nM. The Efficacy in [5] is 99%; in series [5] (tested as the 2H-labelled form) it was 103%. The hepatic extraction ratio in [6] was determined as 0.82. In addition, in [9], the AUC/dose is 7.65 µM·h.
